Tests used:
[1] = Photolysis (Xe flash lamp, bandpass filters) and dark storage assessed by UV-Vis and LC/MS; format: physicochemical; conditions: for photolysis at 546 nm (LC/MS): 546±10 nm (20 min); for photolysis at 546 nm (LC/MS) / photolysis at 646 nm (UV-Vis, LC/MS) / photolysis at 730 nm (LC/MS) / photolysis at 780 nm (LC/MS): 10 μM; for photolysis at 646 nm (UV-Vis, LC/MS): 646±10 nm (20 min); for photolysis at 730 nm (LC/MS): 730±10 nm (150 min); for photolysis at 780 nm (LC/MS): 780±10 nm (3 h)
Method: […] The conversion of alkylcobalamin to hydroxocoabalmin was determined by monitoring the absorption of the mixture at 350 nm using Perkin Elemer Lambda 2 UV/Vis spectrophotometer. (Taylor, R. T.; Smucker, L.; Hanna, M. L.; Gill, J. Arch. Biochem. Biophys. 1973, 156, 521-533.)
[…] The resulting sample (100 μL) was analyzed by LC/MS using a linear gradient binary solvent system (solvent A: 0.1% formic acid/H2O; solvent B: 0.1% formic acid/CH3CN) with a ratio of A:B that varied from 97:3 (0-5 min) to 3:97 (5-18 min).

[2] = administered by IV; cited from earlier work
[3] = Photolysis rate comparison: Xe flash lamp, 546±10 nm, conversion to hydroxocobalamin monitored at 350 nm; format: physicochemical; conditions: 10 μM
Method: General procedure: Photolysis was performed using an Oriel Xe flash lamp (800 mJ, 62 Hz) with a selective bandpass filter for 546±10 nm. The conversion of alkylcobalamin to hydroxocoabalmin was determined by monitoring the absorption of the mixture at 350 nm using Perkin Elemer Lambda 2 UV/Vis spectrophotometer. (Taylor, R. T.; Smucker, L.; Hanna, M. L.; Gill, J. Arch. Biochem. Biophys. 1973, 156, 521-533.)

HeLa cells = assay: Treatment of HeLa cells with colchicine (tubulin staining); format: cell-based; conditions: increasing colchicine
Method: Treatment of HeLa cells with colchicine. […] Cells are washed 2×1 mL with PBS and blocked for 1 h in 5% donkey serum. […] Metamorph software is employed for imaging analysis.

Compound	photolysis at 546 nm (LC/MS) [1]	photolysis at 646 nm (UV-Vis, LC/MS) [1]	photolysis at 730 nm (LC/MS) [1]	photolysis at 780 nm (LC/MS) [1]	also measured
Coenzyme B12-ATTO 725 Conjugate [AdoCbl-3]	complete photolysis	partial photolysis	complete photolysis	not at 780 nm	
αMSH: 13 amino acid α-melanocyte stimulating hormone					half life [2]: only a few minutes
C/C1=C2/[N-]C([C@H](CC(N)=O)[C@@]2(C)CCC(=O)NC[C@@H](C)OP(=O)([O-])O[C@H]2[C@@H](O)[C@@H](n3cnc4cc(C)c(C)cc43)O[C@@H]2CO)[C@]2(C)N=C(/C(C)=C3N=C(/C=C4N=C1[C@@H](CCC(N)=O)C\4(C)C)[C@@H](CCC(N)=O)[C@]\3(C)CC(N)=O)[C@@H](CCC(N)=O)[C@]2(C)CC(N)=O.[CH2-][C@H]1O[C@@H](n2cnc3c(N)ncnc32)[C@@H](O)[C@@H]1O.[Co+3] [AdoCbl, Coenzyme B12, reference compound]	produces these products				rate of photolysis at 546 nm [3]: 1.7±0.2 μM^−1/m; photolysis at wavelengths beyond 600 nm (LC/MS) [1]: resistant to photolysis
Coenzyme B12-Dylight® 800 Conjugate [AdoCbl-4]	generated the expected adenosine products	resistant to photolysis	Partial photolysis	generated the expected adenosine products	
coenzyme B12-TAMRA conjugate [AdoCbl-1]	produces these products				rate of photolysis at 546 nm [3]: 2.9±0.3 μM^−1/m; photolysis at wavelengths beyond 600 nm (LC/MS) [1]: resistant to photolysis
COc1cc2c(c(OC)c1OC)-c1ccc(OC)c(=O)cc1[C@@H](NC(C)=O)CC2 [colchicine]					effect on tubulin networks (HeLa cells): tubulin networks become disrupted
Coenzyme B12-SulfoCy5 Conjugate [AdoCbl-2]	produced adenosine products	produced adenosine products	unaffected	unaffected	
C/C1=C2/[N-][C@H]([C@H](CC(N)=O)[C@@]2(C)CCC(=O)NC[C@H](C)OP(=O)([O-])O[C@H]2[C@@H](O)[C@@H](n3cnc4cc(C)c(C)cc43)O[C@@H]2CO)[C@]2(C)N=C(/C(C)=C3N=C(/C=C4N=C1[C@@H](CCC(N)=O)C\4(C)C)[C@@H](CCC(N)=O)[C@]\3(C)CC(N)=O)[C@@H](CCC(N)=O)[C@]2(C)CC(N)=O.[CH3-].[Co+3] [MeCbl, methylcobalamin]					photolysis rate [3]: 31700 ± 3300 M⁻¹ s⁻¹
